Experimental findings from patent US6719976B1, “Peptide-based immunotherapeutic agent for treating allergic diseases” (Meiji Milk Products Co., Ltd., priority 1996, dated 2004) are described below.

Assay [1] concerns Cry j 1-specific T cell line. Kind of assay: Reactivity of Cry j 1-specific T cell line. It counts as cell-based, human. To be noted: from patients with cedar pollinosis. The source says:
(§1) Two peptides (Cha o 1 #8-Cry j 1 #22 core, Cha o 1 #32-Cry j 1 #22 core) were synthesized by joining Peptide No. 8 (p71-90: […] SEQ ID NO. 11) which is a T cell epitope of hinoki pollen allergen Cha o 1 (Japanese Patent Application N. Hei. 8-15327), or Peptide No. 32 ([…]: […] SEQ ID NO. 12) to Cry j 1 #22 core sequence “FIKRVSNVI”(SEQ ID NO. 7) obtained in Example 14 using a peptide synthesizer (PSSM-8, Shimadzu Seisakusho Ltd.). An RR sequence was inserted between Cha o 1 #8 and Cry j 1 #22 core and between Cha o 1 #32 and Cry j 1 #22 core, that is, Cha o 1 #8-Cry j 1 #22 core (SEQ NO: 4) and Cha o 1 #32-Cry j 1 #22 core (SEQ NO: 5).
(§2) A Cry j 1-specific T cell line and a Cha o 1-specific T cell line were prepared from the patients with cedar pollinosis and hinoki pollinosis, respectively. […] However, these T cell lines all react with the multi-epitope peptide of SEQ NO: 4 and with the multi-epitope peptide of SEQ NO: 5.

The subject of assay [2] is Cha o 1-specific T cell line. Kind of assay: Reactivity of Cha o 1-specific T cell line. It counts as cell-based, human. The following applies: from patients with hinoki pollinosis.
Description: as §1, §2

The subject of assay [3] is T cell clone PJ7-9. Kind of assay: Proliferation response and cytokine production of T cell clone PJ7-9 to analog peptides. The following applies: unsubstituted 13-residue peptide regarded as 100%. The format is cell-based, human. From the text: Two clones, PJ7-9 and PB10-18, were employed to see if the activity of T cells can be altered by substituting the amino acids of T cell epitope peptide of the Cry j 1 #22 core. T cell clones PJ 7-9 and PB10-12 which react with Cry j 1 Peptide No. 22 p106-120 are restricted by DRB5*0101 and recognize the nine residues of the Cry j 1 #22 core. Each of the nine amino acids residues in the peptides p108-120 (VFIKRVSNVIIHG SEQ ID NO. 13) of 13 residues including the nine residues were substituted with an homologous amino acid and a non-homologous amino acid to produce analog peptides (FIGS. 17 and 18). The reactivity of T cell clones PJ 7-9 and PB 10-18 with these analog peptides was examined in terms of the uptake of [^3H] thymidine. The concentration of cytokine in the reaction solution was measured using a cytokine assay kit manufactured by R & D Systems. The production of IFN-γ, IL-4, IL-2, and IL-5 in the supernatant and the uptake of [^3H] thymidine obtained by reacting the peptide of 13 residues with no amino acid substitution were regarded as 100%. […] Accordingly, the amino acids located in these positions are considered to be important for forming the complex of HLA and T cell receptor molecules via the peptide. […] For the PB 10-18 clone, the uptake of [3H] thymidine is suppressed by substitution of amino acid No. 1, 2, 3, 4, 6, 7, or 8 of Cry j 1 #22 core. The amino acids located in these positions are considered to be important for forming the complex of HLA and T cell receptor molecules via the peptide. It is further observed that the IL-2 production is suppressed by substitution of amino acid No. 6, 7, or 8, as compared to IL-5 production (FIG. 18).

Assay [4] concerns T cell clones. Kind of assay: Recognizing the T cell epitopes in the multi-epitope peptide C.A.#4 by T cell clones. It counts as cell-based, human. The following applies: C.A.#4 10 μg/ml. How it is done:
The antigenic peptide constituting the multi-epitope peptide C.A.#4 obtained in Example 6 was examined to determine if the antigenic peptide actually functions as a T cell epitope.
On a 96-well micro culture plate, a mixture of 5×10^4 cells of the autologous B cell line previously treated with mitomycin C and 2×10^4 cells of the T cell clone was incubated for 2 days in 0.2 ml 15% serum-supplemented RPMI-1640 medium, together with, as an antigen, either 50 μg/ml of Cry j 1 and 2 μg/ml of Cry j 2, each antigenic peptide constituting the multi-epitope peptide C.A.#4 or 10 μg/ml C.A.#4 multi-epitope peptide produced by gene expression. After 0.5 μCi [^3H] thymidine was added to the medium, incubation was continued for a further 16 hours. After the cells were harvested on a glass filter using a cell harvester, the level of [^3H] thymidine taken up into the cells was determined using a liquid scintillation counter.

Assay [5] deals with peripheral lymphocytes. Kind of assay: Proliferation response of peripheral lymphocytes induced by multi-epitope peptide. The format is cell-based, human. How it is done:
Peripheral lymphocytes derived from the patients with cedar pollinosis or from healthy subjects were suspended in RPMI-1640 culture medium supplemented with 10% human sera. The suspension was distributed in each well of a 96-well culture plate with a round bottom in a concentration of 2.5×10^5 cells/200 μl. The multi-epitope peptide represented by SEQ NO: 1, either Cry j 1 or Cry j 2, was added to each well to a final concentration of 0.001 to 20 μg/ml of the multi-epitope peptide, 50 μg/ml of Cry j 1 or 2 μg/ml of Cry j 2. The plate was incubated for 6 days. After 0.5 μCi [^3H] thymidine was added to the medium, incubation was continued for a further 16 hours. After the cells were harvested on a glass filter using a cell harvester, the level of [^3H] thymidine taken up into the cells was determined using a liquid scintillation counter.
Peripheral lymphocytes from 17 patients with cedar pollinosis and two healthy subjects were stimulated by 10 μg/ml of the multi-epitope peptide to evaluate T cell response. […] In the 17 patients, a maximum [^3H] thymidine uptake of 9,652 cpm was observed. When [^3H] thymidine uptake of peripheral lymphocytes without antigen stimulation is regarded as 1, the uptake of [^3H] thymidine by peripheral lymphocytes in the presence of an antigen is expressed by a stimulation index (SI). Upon identification of T cell epitopes, SI>2 is regarded to be positive. Similarly, SI>2 is judged to be proliferation responsive to the peptide. […] From the results, the peptide-based immunotherapy is effective when administered to 76.5% of the cedar pollinosis patients.

For assay [6], the system named is human IgE antibody. Kind of assay: Reactivity of the multi-epitope peptides with human IgE antibody (fluorescence plate assay). The format is binding. The following applies: 21 tested patients with cedar pollinosis. The method, then: The six multi-epitope peptides (C.A.#1 through C.A.#6) obtained in Example 6 were dissolved in 0.2 M acetate buffer solution (pH 4.5). The solution was dispensed in quantities of 0.1 ml/well in a black plate (manufactured by Dainihon Pharmaceutical Co., Ltd.) then allowed to stand at 4° C. overnight. After the antigen solution was removed, the wells were washed three times with a washing solution and the serum (4-fold dilution) from 29 patients with cedar pollinosis and healthy subjects were each added to separate wells. The system was then reacted at 37° C. for 4 hours. After the sera were removed, the wells were washed three times with a washing solution then reacted with anti-human IgE antibody (made by Pharmacia Inc.) at room temperature overnight. After washing three times with a washing solution, a substrate solution containing 0.1 mM 4-methylumbelliferyl-, β-D-galacto-pyranoside/0.01 M phosphate buffer (pH 7.0), 0.1 M NaCl, 1 mM MgCl2, 0.1% NaN, and 0.1% BSA was added, and the solution was incubated at 37° C. for 2 hours. A solution of 0.1 M glycine/NaOH (pH 10.3) was added to the wells to terminate the reaction. Fluorescent intensity was measured using a fluorophotometer (Labsystems). For positive control to each multi-epitope peptide, biotin-labeled rabbit anti-d epitope IgG and peroxidase-labeled streptoavidin (made by Pierce Inc.) were reacted.

Turning to FIKRVSNVI [Cry j 1 #22 core], the “reactivity of Cry j 1-specific T cell line” value in assay [1] was “reacts with”. Further, in assay [2], the “reactivity of Cha o 1-specific T cell line” value was “does not react with”.
As for IFSKNLNIKLNMPLYIAGNK [Cha o 1 #8], in assay [1], the “reactivity of Cry j 1-specific T cell line” value is “does not react with”. In addition, the “reactivity of Cha o 1-specific T cell line” value in assay [2] is “reacts with”.
The like results for “SEQ NO: 4: Cha o 1 #8 joined to Cry j 1 #22 core with an RR sequence inserted (IFSKNLNIKLNMPLYIAGNKRRFIKRVSNVI; listed as Cryptomeria japonica)” were, in that order, “react with” and “react with”.
The corresponding values for “SEQ NO: 5: Cha o 1 #32 joined to Cry j 1 #22 core with an RR sequence inserted (SSGKNEGTNIYNNNEAFKVERRFIKRVSNVI; listed as Cryptomeria japonica)” are “react with” and “react with”.
Turning to “SIKRVSNVI (listed as Cryptomeria japonica) [Cry j 1 #22 core with the first amino acid F substituted with S]”, in assay [3], the IFN-γ production entry was “marked increase”, the IL-2 production entry was “marked increase” and the “uptake of [3H] thymidine” value is “no change”.
For the molecule SSGKNEGTNIYNNNEAFKVE [Cha o 1 #32], the “reactivity of Cry j 1-specific T cell line” value in assay [1] is given as “does not react with”. Also, in assay [2], the “reactivity of Cha o 1-specific T cell line” value is on record as “reacts with”.

B1: a-Arg-Arg-b-Arg-Arg-d-Arg-Arg-e-Arg-Arg-c (peptide)
peptide: KSMKVTVAFNQFGPNRRPCVFIKRVSNVIIHGRRAPRDSPNTDGIDIFASKNFHRRKDIKLSDISLKLTSGKIASCRRPCQPHFTFKVDGIIA
notes: produced by gene expression
B1: the “proliferation response of T cell clone PB14-19 (recognizes Cry j2 p341-355)” value in assay [4] was “somewhat weak”. The “proliferation response of the T cell clones recognizing the respective epitope” value in assay [4] (clones PB8-3, PB8-34, PB4-22, PB14-5, PB14-3) is “comparable to that of each of the peptides”.

B2: SEQ NO: 2: joining p213-225 and p108-120 of Cry j 1, p182-200 and p79-98 of Cry j 2, p80-95 of Cry j 1, p66-80 of Cry j 1 (peptide, listed as Cryptomeria japonica)
chain: MKVTVAFNQFGPNRRVFIKRVSNVIIHGRRIDIFASKNFHLQKNTIGTGRRWKNNRIWLQFAKLTGFTLMGRRLKMPMYIAGYKTFDGRRVDGIIAAYQNPASWK
Turning to B2, the “stimulation of peripheral lymphocyte samples” value in assay [5] (21 tested patients with cedar pollinosis) is on record as “stimulated all the peripheral lymphocyte samples”. Further, the “reaction with the IgE antibody of the patients” value in assay [6] is “did not react”.

B3: SEQ NO: 1: multi-epitope peptide containing selected T cell epitopes of Cry j 1 and Cry j 2 joined via Arg-Arg (peptide, listed as Cryptomeria japonica)
chain: MKVTVAFNQFGPNRRVFIKRVSNVIIHGRRIDIFASKNFHLQKNTIGTGRRISLKLTSGKIASRRVDGIIAAYQNPASWK
Regarding B3, the “patients with proliferation response (SI>2)” value in assay [5] (13 out of the 17 patients, 10 μg/ml) amounted to 76.5%. Further, the “maximum [3H] thymidine uptake” value in assay [5] (17 patients, 10 μg/ml) is given as 9,652 cpm. For the same molecule, the “proliferation response of peripheral lymphocytes” value in assay [5] (one patient and two healthy subjects, 0.001 to 20 μg/ml) was “no proliferation response”. In addition, the “patients whose peripheral lymphocytes showed proliferation response” value in assay [5] (six patients with cedar pollinosis, 0.001 to 20 μg/ml) is “five out of six”. For the same molecule, in assay [5] (two healthy subjects, 10 μg/ml), the “T cell proliferation response of peripheral lymphocytes from healthy subjects” value is recorded as “No response to T cell proliferation was observed”.
